We go through 28 molecules from ChEMBL document CHEMBL4261541, “Synthesis and evaluation of oxindoles as promising inhibitors of the immunosuppressive enzyme indoleamine 2,3-dioxygenase 1” (Medchemcomm, 2017).

The target in data set [1] is T1, Indoleamine 2,3-dioxygenase 1 (Homo sapiens, UniProt P14902). Put plainly: Inhibition of recombinant human IDO1 assessed as reduction in conversion of L-tryptophan to kynurenine by methylene blue dye based spectrometric method.
Target sequence in this assay (P14902 whole entry): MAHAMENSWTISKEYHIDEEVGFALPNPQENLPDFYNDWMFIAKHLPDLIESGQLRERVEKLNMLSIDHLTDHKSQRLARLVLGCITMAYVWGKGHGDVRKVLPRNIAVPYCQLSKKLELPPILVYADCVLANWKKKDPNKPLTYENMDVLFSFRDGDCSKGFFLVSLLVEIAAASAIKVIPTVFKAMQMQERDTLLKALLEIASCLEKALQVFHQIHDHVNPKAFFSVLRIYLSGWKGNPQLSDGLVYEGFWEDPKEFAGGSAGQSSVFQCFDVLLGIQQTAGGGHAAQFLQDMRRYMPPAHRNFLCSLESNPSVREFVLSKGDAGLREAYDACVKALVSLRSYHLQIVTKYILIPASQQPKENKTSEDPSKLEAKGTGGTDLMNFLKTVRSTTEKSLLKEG
Data set [2] concerns the target T1, Indoleamine 2,3-dioxygenase 1. Put plainly: Competitive inhibition of recombinant human IDO1 assessed as reduction in conversion of L-tryptophan to N-formylkynurenine at 200 to 1500 nM by methylene blue dye based spectrometric method.
Target sequence in this assay (P14902 whole entry, looked up): as the sequence (P14902 whole entry) above
The species entered for data set [3] is Homo sapiens. As to the kind of experiment: Selectivity ratio of IC50 for human TDO to IC50 for human IDO1.
Data set [4] deals with Tryptophan 2,3-dioxygenase (Homo sapiens, UniProt P48775). Put plainly: Inhibition of recombinant human TDO assessed as reduction in conversion of L-tryptophan to kynurenine by methylene blue dye based spectrometric method.
Tryptophan 2,3-dioxygenase, sequence (P48775 whole entry): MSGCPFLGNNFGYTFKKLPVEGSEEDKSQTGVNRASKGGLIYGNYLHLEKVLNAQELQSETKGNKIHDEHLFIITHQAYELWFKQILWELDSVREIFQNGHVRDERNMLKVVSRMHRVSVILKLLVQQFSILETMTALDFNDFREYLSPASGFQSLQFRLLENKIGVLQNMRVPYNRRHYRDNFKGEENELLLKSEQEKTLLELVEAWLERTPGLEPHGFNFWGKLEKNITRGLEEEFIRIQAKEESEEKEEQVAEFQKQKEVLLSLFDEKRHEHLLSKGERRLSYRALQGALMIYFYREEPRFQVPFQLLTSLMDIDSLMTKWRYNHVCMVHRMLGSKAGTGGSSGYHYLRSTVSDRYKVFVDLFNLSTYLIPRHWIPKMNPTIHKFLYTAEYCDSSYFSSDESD
Data set [5] relates to A549. As to the kind of experiment: Cytotoxicity against human A549 cells assessed as reduction in cell viability at 2 times IDO1 inhibitory IC50 after 48 hrs by MTT assay. It counts as functional, cell-based.
Data set [6] addresses T1, Indoleamine 2,3-dioxygenase 1. As to the kind of experiment: Inhibition of IFNgamma-stimulated IDO1 in human MDA-MB-231 cells preincubated for 4 hrs followed by tryptophan addition measured after 5 hrs by methylene blue dye based spectrophotometric method. It counts as cell-based.
Target sequence in this assay (P14902 whole entry): as the sequence (P14902 whole entry) above
The target is the same in data set [7]. Put plainly: Uncompetitive inhibition of recombinant human IDO1 assessed as reduction in conversion of L-tryptophan to N-formylkynurenine at 200 to 1500 nM by methylene blue dye based spectrometric method.
Target sequence in this assay (P14902 whole entry, looked up): as the sequence (P14902 whole entry) above
Data set [8] has as its system MDA-MB-231. As to the kind of experiment: Cytotoxicity against human MDA-MB-231 cells assessed as reduction in cell viability at 2 times IDO1 inhibitory IC50 after 48 hrs by MTT assay. It counts as functional, cell-based. (In general: Tetrazolium dyes change colour on reduction, which living cells bring about.)
For data set [9], the system named is MDA-MB-231. As to the kind of experiment: Cytotoxicity against human MDA-MB-231 cells assessed as induction of morphological changes at 2 times IDO1 inhibitory IC50 after 48 hrs by cytell imaging analysis. Type of data set: functional, cell-based.
For data set [10], the system named is J774.A1. Put plainly: Cytotoxicity against mouse J774A.1 cells assessed as reduction in cell viability at 2 times IDO1 inhibitory IC50 after 48 hrs by MTT assay. To be noted: j774.a1, 48 h. Type of data set: cell-based.
In data set [11] the test system is HeLa. Put plainly: Cytotoxicity against human HeLa cells assessed as reduction in cell viability at 2 times IDO1 inhibitory IC50 after 48 hrs by MTT assay. It counts as functional, cell-based.
The target of data set [12] is T1, Indoleamine 2,3-dioxygenase 1. Put plainly: Binding affinity to human ferric-IDO1 assessed as blue shift in soret peak at 50 uM by UV-Visible spectrophotometric method.
Target sequence in this assay (P14902 whole entry, looked up): as the sequence (P14902 whole entry) above
The target is the same in data set [13]. Put plainly: Binding affinity to human ferrous-IDO1 assessed as blue shift in soret peak at 50 uM by UV-Visible spectrophotometric method.
Target sequence in this assay (P14902 whole entry, looked up): as the sequence (P14902 whole entry) above

Usually IC50 stands for the concentration that inhibits the measured activity by half. A word on the EC50: it is the concentration that produces a half-maximal response. Read a high EC50 as lower potency in that assay.

The source made the active and inactive calls. The calls are words filed in the database; no cut-off is given here.

Regarding `O=C1Nc2ccccc2/C1=N/c1ccccc1Br`, the IC50 was 1.24 µM in [1] and 46.2 µM in data set [4]. Also, the inhibition result in data set [2] is “Active”. Besides, the Ratio IC50 in [3] is 37.
Consider `Cc1ccc(S(=O)(=O)N/N=C2\C(=O)Nc3ccccc32)cc1`, for which the IC50 came to 1.78 µM in data set [1] and 52.9 µM in [4]. Besides, in data set [3], the Ratio IC50 came to 30.
With `O=C1Nc2ccccc2/C1=N/Nc1ccc(Cl)cc1`, the outcome in data set [5], in data set [8], in [9] and in data set [11] was inactive. The EC50 in [6] was 0.42 µM. For the same molecule, in data set [7], the inhibition result was “Active”. The results for the IC50 in [1] and in data set [4] were 0.63 µM and 53.4 µM, respectively. For the same molecule, in data set [10], the Activity entry was “Non-Toxic”. The Ratio IC50 in [3] was 85.
For `NC(=O)[C@@H](N)CC1C(=O)Nc2ccccc21` (stereo partly specified), the IC50 in [1] was 8.33 µM.
On the same count and under the same terms, for `NCCC1C(=O)Nc2ccccc21` (stereo unspecified) the value was 3.97 µM; for `O=C1Nc2ccccc2C1=NNc1ccccc1`, 1.95 µM.
Turning to `N[C@@H](CC1C(=O)Nc2ccccc21)C(=O)O` (stereo partly specified), the figures for the IC50 in data set [1] and in data set [4] were 3.39 µM and 60.2 µM, respectively. Besides, in data set [3], the Ratio IC50 is 18.
Turning to `O=C(N[C@@H](CC1C(=O)Nc2ccccc21)C(=O)OCc1ccccc1)OCc1ccccc1` (stereo partly specified), the IC50 in data set [1] is 2.25 µM.
On to `O=C(N[C@@H](CC1C(=O)Nc2ccccc21)C(=O)O)OCc1ccccc1` (stereo partly specified), for which the outcome in data set [5], in data set [8], in [9] and in data set [11] was inactive. For the same molecule, the EC50 in data set [6] turned out to be 1.26 µM. Also, in data set [12], the result was Active. The IC50 in data set [1] came out at 1.28 µM; in [4] it was 27.2 µM. Besides, the inhibition result in [2] and in data set [13] was “Active” throughout. In addition, the Activity result in data set [10] is recorded as “Non-Toxic”. Moreover, in [3], the Ratio IC50 is 21.
In the case of `CC(=O)/C=C1\C(=O)Nc2ccc(Cl)cc21`, the result in data set [5], in data set [8], in [9] and in [11] was inactive. Also, the EC50 in data set [6] amounted to 0.46 µM. The IC50 in data set [1] turned out to be 0.36 µM; in [4], 54.7 µM. Besides, in data set [2], the inhibition entry is “Active”. Further, in data set [10], the Activity result was “Non-Toxic”. For the same molecule, the Ratio IC50 in [3] was 152.
Turning to `CC(C)(C)OC(=O)N[C@@H](CC1C(=O)Nc2ccccc21)C(=O)O` (stereo partly specified), the IC50 in [1] turned out to be 1.95 µM.
With `O=C1Nc2ccccc2/C1=N/Nc1ccccc1C(F)(F)F`, the IC50 amounted to 1.58 µM in data set [1] and 38.3 µM in [4]. Further, the Ratio IC50 in [3] was found to be 24.
On to `O=C(NCCC1C(=O)Nc2ccccc21)OCc1ccccc1` (stereo unspecified), for which the IC50 in data set [1] was determined as 2.31 µM; in data set [4], 58.3 µM. In addition, the Ratio IC50 in [3] amounted to 25.
Turning to `CC(=O)N[C@@H](CC1C(=O)Nc2ccccc21)C(=O)O` (mixture of isomers), the outcome in data set [5], in data set [8], in data set [9] and in data set [11] was inactive. The same molecule displayed an EC50 in data set [6] of 0.48 µM. In addition, in [12], the outcome was Active. Besides, the IC50 in data set [1] was 0.62 µM; in data set [4], 83.5 µM. The inhibition entry in data set [2] and in data set [13] was “Active” throughout. Also, the Activity entry in data set [10] is “Non-Toxic”. Further, in data set [3], the Ratio IC50 was 135.
`CCOC(=O)C(C(=O)OCC)=C1C(=O)Nc2ccccc21`: the IC50 was determined as 0.93 µM in [1] and 71 µM in data set [4]. Moreover, the Ratio IC50 in [3] amounted to 76.
In the case of `CC(=O)CC(=O)CC1(O)C(=O)Nc2ccc(Cl)cc21` (stereo unspecified), the inhibition entry in [7] was “Active”. In data set [1], the IC50 amounted to 0.89 µM.
In the case of `CC(=O)CC1(O)C(=O)Nc2ccc(Cl)cc21` (stereo unspecified), the IC50 in data set [1] worked out at 1.97 µM.
Consider `CC(=O)CC(=O)/C=C1\C(=O)Nc2ccc(Cl)cc21`, for which the result in [5], in [8], in data set [9] and in data set [11] was inactive. In [6], this molecule had an EC50 of 0.33 µM. Moreover, in [12], the result was Active. The results for the IC50 in [1] and in data set [4] were 0.19 µM and 39.9 µM, respectively. Besides, the inhibition entry in [2] and in [13] was “Active” throughout. Besides, the Activity result in [10] was “Non-Toxic”. Also, the Ratio IC50 in [3] was 210.
`O=C(N[C@@H](CC1C(=O)Nc2ccccc21)C(=O)O)c1ccccc1` (mixture of isomers): in data set [1], the IC50 came to 1.58 µM.
Turning to `O=C1Nc2ccccc2/C1=N/Nc1cccc(Cl)c1`, in data set [3], the Ratio IC50 came to 31.
For the molecule `N[C@@H](CC1C(=O)Nc2ccccc21)C(=O)OCc1ccccc1` (stereo partly specified), the IC50 in data set [1] came to 13.6 µM.
As for `O=C1CCCC(=O)C1C1(O)C(=O)Nc2ccccc21` (stereo unspecified), the half-maximal inhibitory concentration (IC50) in [1] was determined as 4.73 µM.
As for `O=C1N=c2ccccc2=C1NNc1cccc(Cl)c1`, the 50% inhibitory concentration (IC50) came to 1.51 µM in data set [1] and 46.8 µM in data set [4].
With `O=C1Nc2ccccc2/C1=N\c1ccc(Cl)cc1`, the IC50 in data set [1] was determined as 2.56 µM.
Same read-out and setting: under `O=C1Nc2ccccc2/C1=N/Nc1cccc([N+](=O)[O-])c1` stands 3.74 µM.
On to `Cn1cc(C[C@H](N)C(=O)O)c2ccccc21`, for which the outcome in data set [8] and in data set [9] was inactive.
With `CC(=O)/C=C1\C(=O)Nc2ccccc21`, the IC50 in data set [1] amounted to 1.69 µM.
On to `CC(=O)CC(=O)CC1(O)C(=O)Nc2ccccc21` (stereo unspecified), for which the result in [5], in data set [8], in data set [9] and in data set [11] was inactive. Further, the response in data set [6] was half-maximal at 0.49 µM (EC50). The results for the Activity in data set [12] and in data set [10] were 9 nm and “Non-Toxic”, respectively. Moreover, the results for the IC50 in data set [1] and in [4] were 0.45 µM and 56.1 µM, respectively. Besides, the inhibition entry in [2] and in [13] was “Active” in each case. In addition, in data set [3], the Ratio IC50 stood at 124.
